Assays:
[1] = target: 5-hydroxytryptamine receptor 2A (Rattus norvegicus, UniProt P14842); assay: Inhibition of [3H]ketanserin binding to 5-hydroxytryptamine 2A receptor rat frontal cortex membrane; type: tissue-based
[2] = target: D(1A) dopamine receptor (Rattus norvegicus, UniProt P18901); assay: Inhibition of [3H]-SCH- 23390 binding to dopamine receptor D1 rat striatal membrane
[3] = species: Rattus norvegicus; assay: Value was obtained against serotonin-induced (5-HT2A) contractions in rat aorta rings; conditions: read-out: pA2 (converted)
[4] = target: D(2) dopamine receptor (Rattus norvegicus, UniProt P61169); assay: Inhibition of [3H]-spiperone […] binding to dopamine receptor D2 rat striatal membrane
Chain of D(2) dopamine receptor (P61169 whole entry): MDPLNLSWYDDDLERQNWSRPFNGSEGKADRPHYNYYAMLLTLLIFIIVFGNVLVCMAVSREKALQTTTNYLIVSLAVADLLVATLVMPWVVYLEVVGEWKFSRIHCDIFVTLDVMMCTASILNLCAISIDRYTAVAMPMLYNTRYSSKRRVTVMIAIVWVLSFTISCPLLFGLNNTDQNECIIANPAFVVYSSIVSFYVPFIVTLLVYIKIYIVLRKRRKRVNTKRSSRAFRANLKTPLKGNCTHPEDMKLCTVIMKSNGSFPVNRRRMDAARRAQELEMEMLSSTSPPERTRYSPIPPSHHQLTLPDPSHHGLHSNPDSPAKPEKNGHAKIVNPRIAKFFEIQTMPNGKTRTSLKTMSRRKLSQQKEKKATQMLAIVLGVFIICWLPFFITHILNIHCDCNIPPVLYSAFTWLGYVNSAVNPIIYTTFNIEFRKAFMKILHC

Chain of 5-hydroxytryptamine receptor 2A (P14842 whole entry): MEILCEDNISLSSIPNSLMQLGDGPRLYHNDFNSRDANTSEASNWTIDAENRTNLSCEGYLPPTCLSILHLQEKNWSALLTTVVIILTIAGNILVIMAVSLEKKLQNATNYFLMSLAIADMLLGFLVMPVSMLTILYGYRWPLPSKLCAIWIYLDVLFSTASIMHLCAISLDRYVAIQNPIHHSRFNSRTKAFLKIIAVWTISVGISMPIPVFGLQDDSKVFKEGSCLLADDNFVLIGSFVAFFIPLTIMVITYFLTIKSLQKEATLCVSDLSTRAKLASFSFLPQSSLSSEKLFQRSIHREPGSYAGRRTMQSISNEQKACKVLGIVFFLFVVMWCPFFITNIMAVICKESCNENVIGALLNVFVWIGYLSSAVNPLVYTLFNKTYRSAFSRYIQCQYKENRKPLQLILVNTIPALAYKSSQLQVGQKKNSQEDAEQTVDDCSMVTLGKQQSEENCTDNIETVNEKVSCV
Chain of D(1A) dopamine receptor (P18901 whole entry): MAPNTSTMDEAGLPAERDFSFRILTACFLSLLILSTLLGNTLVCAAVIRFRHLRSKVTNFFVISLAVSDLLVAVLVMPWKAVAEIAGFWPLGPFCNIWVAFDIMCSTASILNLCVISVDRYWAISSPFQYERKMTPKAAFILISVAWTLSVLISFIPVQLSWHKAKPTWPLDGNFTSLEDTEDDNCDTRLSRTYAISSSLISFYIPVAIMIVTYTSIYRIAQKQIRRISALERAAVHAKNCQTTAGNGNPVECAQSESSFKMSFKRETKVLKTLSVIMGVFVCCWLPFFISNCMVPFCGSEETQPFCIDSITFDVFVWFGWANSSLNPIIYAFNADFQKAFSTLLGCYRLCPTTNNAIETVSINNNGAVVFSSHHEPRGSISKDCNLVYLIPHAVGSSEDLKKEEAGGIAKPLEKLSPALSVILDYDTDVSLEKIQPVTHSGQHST

Row | SMILES | Ki [1] [nM] | Ki [2] [nM] | Kb [3] [nM] | Ki [4] [nM]
1 | O=C(c1ccc(F)cc1)C1CCN(CCC2CCCc3ccccc3C2=O)CC1 (stereo not drawn) | 12.9 | 1290 | 178 | 
2 | O=C(c1ccc(F)cc1)C1CCN(CCC2Cc3cc(F)ccc3C2=O)CC1 (stereo not drawn) | 3.8 | 1100 | 7.59 | 47.9
3 | O=C(c1ccc(F)cc1)C1CCN(CCC2Cc3ccccc3C2=O)CC1 (stereo not drawn) | 2.51 | 2820 | 7.59 | 
4 | O=C(c1ccc(F)cc1)C1CCN(CCC2CCc3ccccc3C2=O)CC1 (stereo not drawn) | 7.76 | 1550 | 35.5 | 
